Reference: publication PMC7486443, “Generation of Phenothiazine with Potent Anti-TLK1 Activity for Prostate Cancer Therapy” (iScience, 2020)

Legend:
Assay in all cases: biochemical
Design in all cases: DiscoverX KINOMEscan scanMAX competition binding panel, single concentration, percent of control; remaining binding: dose or concentration left out as unconfirmed
Conditions in all cases: KINOMEscan binding, percent of control; read-out: Table S4_SCANMAX REPORT - related to Fig. 1 / Percent Control
[1] = target: T1, ABL1(Q252H)-phosphorylated (Homo sapiens, UniProt P00519, Q252H)
T1 construct: phosphorylated

[2] = target: PKMYT1 (Homo sapiens, UniProt Q99640)
[3] = target: BLK (Homo sapiens, UniProt P51451)
Chain of BLK (P51451 whole entry): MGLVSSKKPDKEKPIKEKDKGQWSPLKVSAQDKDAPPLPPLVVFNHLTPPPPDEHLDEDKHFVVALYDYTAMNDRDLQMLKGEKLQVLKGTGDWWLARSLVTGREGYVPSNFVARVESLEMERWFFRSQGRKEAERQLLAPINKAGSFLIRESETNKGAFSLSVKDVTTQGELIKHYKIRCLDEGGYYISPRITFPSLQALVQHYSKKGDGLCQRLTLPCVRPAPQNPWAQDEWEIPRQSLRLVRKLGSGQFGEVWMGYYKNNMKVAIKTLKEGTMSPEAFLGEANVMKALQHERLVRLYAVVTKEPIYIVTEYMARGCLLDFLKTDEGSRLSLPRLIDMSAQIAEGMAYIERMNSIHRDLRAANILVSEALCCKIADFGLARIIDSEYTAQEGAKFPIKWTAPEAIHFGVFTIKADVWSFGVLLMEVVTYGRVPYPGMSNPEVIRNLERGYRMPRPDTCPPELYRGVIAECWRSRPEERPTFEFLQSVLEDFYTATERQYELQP

[4] = target: BRAF(V600E) (Homo sapiens, UniProt P15056, V600E)
Chain of BRAF(V600E) (P15056 whole entry V600E): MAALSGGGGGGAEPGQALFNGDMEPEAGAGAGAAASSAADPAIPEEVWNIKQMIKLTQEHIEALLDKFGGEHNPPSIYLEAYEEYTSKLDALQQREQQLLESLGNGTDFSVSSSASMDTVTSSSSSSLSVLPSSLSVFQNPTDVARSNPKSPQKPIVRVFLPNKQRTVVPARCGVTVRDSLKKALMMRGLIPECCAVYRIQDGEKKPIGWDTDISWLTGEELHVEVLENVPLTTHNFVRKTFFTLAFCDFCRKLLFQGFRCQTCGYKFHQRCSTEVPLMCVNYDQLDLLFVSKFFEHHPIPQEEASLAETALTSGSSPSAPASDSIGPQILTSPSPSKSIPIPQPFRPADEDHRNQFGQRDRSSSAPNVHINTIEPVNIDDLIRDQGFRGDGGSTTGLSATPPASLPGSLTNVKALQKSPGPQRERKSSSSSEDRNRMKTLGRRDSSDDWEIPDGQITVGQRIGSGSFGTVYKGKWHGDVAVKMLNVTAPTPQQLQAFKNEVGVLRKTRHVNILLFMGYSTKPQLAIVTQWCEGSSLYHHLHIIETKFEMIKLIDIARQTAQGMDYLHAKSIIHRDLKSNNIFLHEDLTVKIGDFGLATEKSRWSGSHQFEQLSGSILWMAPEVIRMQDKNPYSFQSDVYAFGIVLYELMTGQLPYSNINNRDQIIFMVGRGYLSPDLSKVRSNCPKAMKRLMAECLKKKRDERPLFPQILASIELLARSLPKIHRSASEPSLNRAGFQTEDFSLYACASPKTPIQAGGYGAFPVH

[5] = target: MST1R (Homo sapiens, UniProt Q04912)
Chain of MST1R (Q04912 whole entry): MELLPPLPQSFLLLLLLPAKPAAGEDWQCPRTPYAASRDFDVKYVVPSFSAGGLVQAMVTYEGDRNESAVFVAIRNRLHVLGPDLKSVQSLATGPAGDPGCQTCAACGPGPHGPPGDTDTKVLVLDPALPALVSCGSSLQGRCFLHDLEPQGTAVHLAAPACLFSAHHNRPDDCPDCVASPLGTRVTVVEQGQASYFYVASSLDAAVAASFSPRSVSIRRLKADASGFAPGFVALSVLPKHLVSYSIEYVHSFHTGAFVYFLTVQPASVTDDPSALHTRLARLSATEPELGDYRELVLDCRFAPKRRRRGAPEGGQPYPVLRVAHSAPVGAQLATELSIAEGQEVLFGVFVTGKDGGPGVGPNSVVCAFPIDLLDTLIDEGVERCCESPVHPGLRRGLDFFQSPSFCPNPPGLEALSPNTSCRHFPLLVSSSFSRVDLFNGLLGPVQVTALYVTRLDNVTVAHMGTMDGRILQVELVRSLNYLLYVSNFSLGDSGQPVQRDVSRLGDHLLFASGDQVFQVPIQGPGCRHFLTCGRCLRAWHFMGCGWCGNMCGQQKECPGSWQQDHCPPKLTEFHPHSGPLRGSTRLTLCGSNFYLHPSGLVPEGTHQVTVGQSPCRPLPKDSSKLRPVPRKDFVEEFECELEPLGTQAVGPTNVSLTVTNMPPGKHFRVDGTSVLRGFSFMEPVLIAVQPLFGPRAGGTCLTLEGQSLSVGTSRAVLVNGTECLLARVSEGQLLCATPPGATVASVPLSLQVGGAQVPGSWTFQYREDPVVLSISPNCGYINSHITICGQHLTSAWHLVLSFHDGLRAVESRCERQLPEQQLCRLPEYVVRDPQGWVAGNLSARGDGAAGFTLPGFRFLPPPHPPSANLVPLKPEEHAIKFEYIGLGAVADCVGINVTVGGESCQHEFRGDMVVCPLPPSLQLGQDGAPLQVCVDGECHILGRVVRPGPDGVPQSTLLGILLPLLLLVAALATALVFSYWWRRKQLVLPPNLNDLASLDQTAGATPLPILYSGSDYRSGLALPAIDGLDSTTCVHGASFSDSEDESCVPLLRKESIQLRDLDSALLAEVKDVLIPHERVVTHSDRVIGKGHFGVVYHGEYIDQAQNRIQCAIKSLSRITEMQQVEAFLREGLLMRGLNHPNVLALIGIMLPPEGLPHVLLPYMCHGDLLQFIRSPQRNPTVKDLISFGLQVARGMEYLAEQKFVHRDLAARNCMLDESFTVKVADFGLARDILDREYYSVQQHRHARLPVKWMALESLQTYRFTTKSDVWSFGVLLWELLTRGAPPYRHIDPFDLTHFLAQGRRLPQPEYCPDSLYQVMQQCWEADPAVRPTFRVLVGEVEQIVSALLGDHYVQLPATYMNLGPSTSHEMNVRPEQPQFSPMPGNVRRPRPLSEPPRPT

[6] = target: T2, PFPK5(P.falciparum) (Plasmodium falciparum, UniProt P61075)
T2 construct: gene MAL13P1.279
T2 sequence (P61075 whole entry): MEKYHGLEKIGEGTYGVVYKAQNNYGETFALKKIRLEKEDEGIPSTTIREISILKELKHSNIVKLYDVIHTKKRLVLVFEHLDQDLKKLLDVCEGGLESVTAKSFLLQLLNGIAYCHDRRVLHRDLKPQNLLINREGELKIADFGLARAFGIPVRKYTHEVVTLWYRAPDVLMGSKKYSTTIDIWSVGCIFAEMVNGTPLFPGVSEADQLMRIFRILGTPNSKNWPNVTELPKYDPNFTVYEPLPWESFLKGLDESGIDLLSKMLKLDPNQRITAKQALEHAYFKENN

[7] = target: EGFR(S752-I759del) (Homo sapiens, UniProt P00533, DEL752-759)
[8] = target: T3, ABL1(Y253F)-phosphorylated (Homo sapiens, UniProt P00519, Y253F)
T3 construct: phosphorylated

[9] = target: NEK2 (Homo sapiens, UniProt P51955)
[10] = target: T4, MRCKB (Homo sapiens, UniProt Q9Y5S2)
T4 construct: gene CDC42BPB

[11] = target: T5, SgK110 (Homo sapiens, UniProt P0C264)
T5 construct: gene SBK3

[12] = target: ACVR1B (Homo sapiens, UniProt P36896)
Chain of ACVR1B (P36896 whole entry): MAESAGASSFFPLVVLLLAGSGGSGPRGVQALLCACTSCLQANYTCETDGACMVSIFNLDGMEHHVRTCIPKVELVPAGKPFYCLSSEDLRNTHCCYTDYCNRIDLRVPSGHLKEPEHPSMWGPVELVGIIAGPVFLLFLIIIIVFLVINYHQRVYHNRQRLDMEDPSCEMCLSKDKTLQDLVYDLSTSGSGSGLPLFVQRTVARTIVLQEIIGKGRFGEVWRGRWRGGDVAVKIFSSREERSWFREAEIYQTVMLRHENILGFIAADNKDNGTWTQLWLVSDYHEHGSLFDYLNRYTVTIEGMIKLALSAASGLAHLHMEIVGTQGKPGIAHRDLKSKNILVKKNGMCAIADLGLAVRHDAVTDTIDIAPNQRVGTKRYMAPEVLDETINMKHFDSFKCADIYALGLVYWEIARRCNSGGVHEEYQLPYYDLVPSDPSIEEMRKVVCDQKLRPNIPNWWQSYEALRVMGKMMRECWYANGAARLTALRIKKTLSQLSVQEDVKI

[13] = target: STK16 (Homo sapiens, UniProt O75716)
Chain of STK16 (O75716 whole entry): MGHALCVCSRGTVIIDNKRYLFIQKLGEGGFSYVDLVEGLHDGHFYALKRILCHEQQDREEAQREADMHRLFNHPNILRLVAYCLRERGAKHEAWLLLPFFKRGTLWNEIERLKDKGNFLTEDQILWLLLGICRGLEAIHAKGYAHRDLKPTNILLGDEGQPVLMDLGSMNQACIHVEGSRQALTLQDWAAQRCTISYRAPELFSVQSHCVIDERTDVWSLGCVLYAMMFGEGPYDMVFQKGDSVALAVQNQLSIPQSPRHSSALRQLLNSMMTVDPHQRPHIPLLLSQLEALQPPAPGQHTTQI

[14] = target: CSNK1A1L (Homo sapiens, UniProt Q8N752)
[15] = target: T6, SNARK (Homo sapiens, UniProt Q9H093)
T6 construct: gene NUAK2
T6 sequence (Q9H093 whole entry): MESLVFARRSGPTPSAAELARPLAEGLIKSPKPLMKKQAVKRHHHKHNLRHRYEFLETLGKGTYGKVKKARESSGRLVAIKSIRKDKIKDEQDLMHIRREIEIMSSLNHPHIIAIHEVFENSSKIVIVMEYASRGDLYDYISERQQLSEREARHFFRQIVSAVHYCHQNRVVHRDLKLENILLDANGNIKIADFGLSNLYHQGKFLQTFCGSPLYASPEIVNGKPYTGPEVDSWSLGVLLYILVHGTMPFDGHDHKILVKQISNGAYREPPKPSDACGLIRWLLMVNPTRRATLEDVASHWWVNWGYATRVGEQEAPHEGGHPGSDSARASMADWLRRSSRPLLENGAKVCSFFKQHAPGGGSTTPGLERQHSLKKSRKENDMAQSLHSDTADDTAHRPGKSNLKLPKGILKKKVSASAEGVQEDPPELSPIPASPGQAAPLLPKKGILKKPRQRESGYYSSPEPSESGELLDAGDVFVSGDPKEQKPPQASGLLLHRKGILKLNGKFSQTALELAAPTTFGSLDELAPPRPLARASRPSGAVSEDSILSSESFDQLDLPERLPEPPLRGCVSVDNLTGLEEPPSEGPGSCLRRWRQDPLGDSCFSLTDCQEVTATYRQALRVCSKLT

[16] = target: PIK3CA(M1043I) (Homo sapiens, UniProt P42336, M1043I)
[17] = target: T7, MST3 (Homo sapiens, UniProt Q9Y6E0)
T7 construct: gene STK24
T7 sequence (Q9Y6E0 whole entry): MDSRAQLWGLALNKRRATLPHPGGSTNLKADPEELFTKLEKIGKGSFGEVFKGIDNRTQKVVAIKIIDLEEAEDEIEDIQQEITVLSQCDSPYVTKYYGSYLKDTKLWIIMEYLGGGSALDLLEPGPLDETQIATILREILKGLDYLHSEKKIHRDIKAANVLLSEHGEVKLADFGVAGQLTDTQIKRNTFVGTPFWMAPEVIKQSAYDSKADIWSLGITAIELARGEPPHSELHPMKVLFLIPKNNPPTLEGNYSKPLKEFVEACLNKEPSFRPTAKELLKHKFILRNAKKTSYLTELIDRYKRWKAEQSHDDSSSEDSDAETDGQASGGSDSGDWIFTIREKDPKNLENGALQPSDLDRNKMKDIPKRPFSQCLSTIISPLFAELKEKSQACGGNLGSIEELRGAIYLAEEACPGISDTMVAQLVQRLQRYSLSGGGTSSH

[18] = target: T8, ABL1(T315I)-phosphorylated (Homo sapiens, UniProt P00519, T315I)
T8 construct: phosphorylated

c1ccc2c(c1)Sc1ccccc1N2CCN1CCOCC1 [J54]
remaining binding [1]: 90%
remaining binding [2]: 100%
remaining binding [3]: 60%
remaining binding [4]: 100%
remaining binding [5]: 100%
remaining binding [6]: 98%
remaining binding [7]: 94%
remaining binding [8]: 79%
remaining binding [9]: 100%
remaining binding [10]: 95%
remaining binding [11]: 100%
remaining binding [12]: 88%
remaining binding [13]: 99%
remaining binding [14]: 100%
remaining binding [15]: 99%
remaining binding [16]: 98%
remaining binding [17]: 100%
remaining binding [18]: 93%
